# Reference: US11491126B2, “Method for reducing lung inflammation” (priority 2017, dated 2022)
# Entries after “also recorded” stand apart in the source; their conditions may differ. Read-outs that look alike come from different tables or passages of the source.
# Columns and labels:
# [1] = versus placebo
# Protocol: A single centre, randomised, double blind, crossover study of cystic fibrosis subjects is carried out. Subjects are randomised for treatment with inhaled CaEDTA or saline (placebo) for two weeks.
# Iron levels, inflammatory markers, MMP/TIMP and FEV1 are monitored as above. Myeloperoxidase activity is also assayed as a measure of neutrophilic inflammation as previously described (Gaggar et al., Eur Respir J. 2011 38(3): 721-727). 3-chlorotyrosine will be measured as a biomarker of the potent oxidant hypochlorous acid. Levels are measured using stable isotope dilution gas chromatography with mass spectrometry (Gaggar et al., Eur Respir J. 2011 38(3): 721-727). Protein carbonyls are measured as an indicator of reactive oxygen species (ROS) using a commercial immunoassay kit (Gaggar et al., Eur Respir J. 2011 38(3): 721-727).
# [2] = system: Pseudomonas spp. (P. aeruginosa) in sputum
# Excerpt: Patients were monitored for a further four weeks, bringing the total study time to 10 weeks.
# [3] = Protocol: Subjects are then discharged and treatment continued twice a day for four weeks. Subjects are monitored for a further four weeks, bringing the total study time to 10 weeks. Sputum is collected by induction with nebulised 3% hypertonic saline at 8-10 L/min for ≥5 minutes. Samples is collected prior to treatment, and at 2, 6 and 10 weeks, processed according to the relevant protocol and stored at −80° C.
# Expectorated sputum is stored in RNAlater®, total RNA is extracted using a Qiagen RNEasy® or similar extraction kit, converted into cDNA, and inflammatory markers monitored using qPCR as described by Sivaneson et al. (Mol Microbiol 79, 1353-1366) and quantified relative to known housekeeping genes, such as actin and/or GAPDH.
# Expectorated sputum is frozen directly without processing and assayed for inflammatory markers as above. As a measure of structural damage, levels of matrix metalloproteinases (MMPs) and tissue inhibitors of metalloproteinases (TIMPs) are measured using gelatin zymography and immunoassays, respectively as previously described (Gaggar et al., Eur Respir J. 2011 38(3): 721-727; Garratt et al., Eur Respir J. 2015 46(2):384-94). The amount of iron in the sputum is quantified by ICP-MS as previously described (Hunter et al., MBio. 2013 4(4):1-8). The amount of iron-binding proteins is assessed using immunoassays. Oxidative stress is assessed by measuring glutathione (GSSG and GSH) using immunoassays as previously described (Kettle et al., Eur Respir J. 2014 44(1):122-9).
# Lung epithelial cells = conditions: versus controls
# Protocol: Lung epithelial cells are grown in tissue culture and inflammation induced by exposure to Fe(II) or excess oxygen. The cells are treated with CaEDTA (0, 1, 5, 10, 25, 50 mM) for 30 min, 1, 3, 24 and 48 hours.
# Immunoassays are used to monitor the change in inflammatory markers, such as IL-6, IL-8, TNF-α, neutrophil elastase and others. Oxidative stress and toxicity is measured by assessing reduced glutathione (GSH) levels and apoptosis based on a TUNEL assay, both using commercial assay kits such as ThermoFisher Scientific's Glutathione Fluorescent Detection Kit and BioVision Inc's TUNEL DNA Gragmentation Assay Kit.
# [4] = in vivo; cited from earlier work
# P. aeruginosa biofilms = test: Biofilms in suspended drops of cystic fibrosis mucus treated with nebulised/aerosolised agents; assay type: cell-based, Pseudomonas aeruginosa; conditions: treated 5 min, incubated 16 hours; tobramycin 20 mg/ml, CaEDTA particles 10 mg/ml
# Protocol: Drops of mucus (5 μl) were suspended from an inverted IBIDI cover slip and inoculated with 10^3 colony forming units (CFU), then incubated in a humidified environment at 35° C. for 72 hours to allow biofilm development. Drops were then treated for 5 min with either nebulised tobramycin (20 mg/ml), aerosolised CaEDTA particles (10 mg/ml), or both. Controls were treated with a 50/50 solution of nebulised 0.9% saline/water. Following treatment, the drops were incubated for 16 hours, then stained with BacLight LIVE/DEAD (1 μl), and fixed in paraformaldehyde vapour for 30 min. Biofilms were visualised using confocal microscopy.
# [5] = in vivo; cited from earlier work; remark: listed apart in the source
# [6] = remark: listed apart in the source
# Protocol: Following discharge, treatment was continued twice a day for four weeks. Subjects were monitored for a further four weeks, bringing the total study time to 10 weeks.
# At each study visit, lung function was measured by spirometry. Data was recorded as the best of three attempts, and results were expressed as % predicted.
# bacterial infections = conditions: inhaled EDTA alone; cited from earlier work
# [7] = remark: listed apart in the source
# Protocol: Subjects with CF who need treatment with dry powder tobramycin will be allocated into four cohorts and receive 112 mg dry powder twice a day for 28 days. In addition, Cohort 1 (patients >18 years) will receive ascending doses of dry powder CaEDTA (37.5 mg BID for 1 week; 75 mg BID for 2 weeks, 150 mg BID for 1 week). Cohort 2 (patients >18 years) will receive CaEDTA (37.5 mg BID for 1 week; 75 BID for 2 weeks; 75 mg QID for 1 week). Cohort 3 (patients 12-18 years) will receive CaEDTA (37.5 mg BID for 1 week; 75 mg BID for 2 weeks, 150 mg BID for 1 week. Finally, an observational cohort will receive tobramycin alone for 28 days.
# Sputum samples will be collected weekly and assessed for markers of infection and inflammation. Bacteria will be monitored by sputum colony counts. As a measure of structural damage, levels of matrix metalloproteinases (MMPs) and tissue inhibitors of metalloproteinases (TIMPs) are measured using gelatin zymography and immunoassays, respectively, as previously described (Gaggar et al., Eur Respir J. 2011 38(3): 721-727; Garratt et al., Eur Respir J. 2015 46(2):384-94). The amount of iron in the sputum is quantified by ICP-MS as previously described (Hunter et al., MBio. 2013 4(4):1-8). The amount of iron-binding proteins is assessed using immunoassays. Myeloperoxidase activity are also assayed as a measure of neutrophilic inflammation as previously described (Gaggar et al., Eur Respir J. 2011 38(3): 721-727). 3-chlorotyrosine is measured as a biomarker of the potent oxidant hypochlorous acid. Levels are measured using stable isotope dilution gas chromatography with mass spectrometry (Gaggar et al., Eur Respir J. 2011 38(3): 721-727). Protein carbonyls are measured as an indicator of reactive oxygen species (ROS) using a commercial immunoassay kit (Gaggar et al., Eur Respir J. 2011 38(3): 721-727). Oxidative stress is assessed by measuring glutathione (GSSG and GSH) using immunoassays as previously described (Kettle et al., Eur Respir J. 2014 44(1):122-9). Gene expression of inflammatory and oxidative stress markers (e.g. IL-8, IL-6, TNFa) will also be monitored by Nanostring, and proteins will be measured by ELISA. Oxidative stress can also be measured via metabolites, such as molondialdehyde (colorimetric assay) or 8-isoprostane (ELISA). Iron will be measured by elemental analysis using laser ablation-inductively coupled plasma-mass spectrometry (LA-ICP-MS).
# Remark: listed apart in the source
# [8] = system: Pseudomonas aeruginosa clinical strain; test: MIC of tobramycin for the clinical strain used for biofilms; assay type: cell-based; conditions: P. aeruginosa clinical strain
# [9] = ten CF children, nebulised, three months; cited from earlier work
# [10] = EDTA group versus placebo group
molecule,measurement,setting,value
"O=C(O)CN(CCN(CC(=O)O)CC(=O)O)CC(=O)O [EDTA, ethylene diamine tetraacetic acid]",MMP/TIMP balance,[1],altered MMP/TIMP balance
same,inflammatory markers,[1],reduced levels of iron and inflammatory markers
same,iron levels,[1],reduced levels of iron
same,mean FEV1,[1],increased mean FEV1
same,mean levels of chlorotyrosine and carbonyls,[1],lower mean levels of chlorotyrosine and carbonyls
same,myeloperoxidase activity,[1],reduced myeloperoxidase activity
same,reduction in colony counts of P. aeruginosa (McC agar) versus start of treatment,"[2]; after two weeks of treatment, 300 mg EDTA/day with tobramycin, placebo 4.5-fold",> 400 fold
same,gene expression of inflammatory markers in sputum (qPCR),[3]; [10],mean reduction in the gene expression of inflammatory markers
same,inflammatory markers in sputum,[3]; [10],reduction in inflammatory markers
same,balance between MMPs and TIMPs,[3]; especially MMP-9 and TIMP-1,change in the balance between MMPs and TIMPs
same,"inflammatory markers (IL-6, IL-8, TNF-α, neutrophil elastase)","Lung epithelial cells; CaEDTA 0-50 mM, 30 min to 48 hours",concentration dependent reduction in inflammatory markers
same,apoptosis (TUNEL assay),Lung epithelial cells,reduced apoptosis
same,reduced glutathione (GSH) levels,Lung epithelial cells,reduction in GSH
same,bronchoconstriction,[4],concentration-dependent bronchoconstriction
same,"biofilm viability / killing (BacLight LIVE/DEAD, confocal microscopy)",P. aeruginosa biofilms,some degree of killing; also recorded: kill P. aeruginosa biofilms and act synergistically with tobramycin
same,effect on FEV1,[5],no effect on FEV1
same,mean increase in FEV1,"[6]; after 2 weeks, 300 mg EDTA/day, placebo 5% points",16 % points
same,increase in FEV1,"[6]; four weeks after the treatment had been completed (10 weeks), placebo 2% point",7 % points
same,effect on lung function,[6]; mg EDTA/kg body weight,dose-dependent effect on lung function
same,treatment of bacterial infections,bacterial infections,does not treat bacterial infections
same,inflammatory markers in sputum,[7]; [10],reduction in inflammatory markers
same,iron levels in sputum,[7]; [10],decrease in iron levels
same,balance between MMPs and TIMPs,[7]; especially MMP-9 and TIMP-1,change in the balance between MMPs and TIMPs
same,FEV1,[7]; versus control patients,increase in FEV1
same,bacterial load in sputum,[7]; versus control patients,reduction of bacterial load in sputum
"O=C([O-])CN(CCN(CC(=O)[O-])CC(=O)[O-])CC(=O)[O-].[Ca+2].[Na+].[Na+] [CaEDTA, CaNa2EDTA]",bacterial load in expectorated mucus,"[2]; CF subjects, nebulised CaEDTA versus saline",reduces the bacterial load in CF lungs faster than antibiotic treatment alone
same,EDTA concentration in sputum,"5 minutes after 75 mg nebulised CaEDTA, CF subjects",0.41 to 1.34 mM
same,EDTA concentration inside mucus plugs,"single dose of 75 mg CaEDTA, after 30 minutes",up to 1.34 mM
NC[C@H]1O[C@H](O[C@H]2[C@H](O)[C@@H](O[C@H]3O[C@H](CO)[C@@H](O)[C@H](N)[C@H]3O)[C@H](N)C[C@@H]2N)[C@H](N)C[C@@H]1O [tobramycin],"biofilm viability / killing (BacLight LIVE/DEAD, confocal microscopy)",P. aeruginosa biofilms,little effect on viability
same,MIC,[8],> 256 µg/mL
sodium EDTA,lung function,[9],no change in lung function
